Laboratory results as given in PMC11932207, “Regulating AMPA Receptors with Isoxazole-4-Carboxamide Derivatives: An Electrophysiological Study” (Journal of Xenobiotics, 2025).
Where two headings read alike, the source gives them in different places.

Columns and labels:
[1] = biological target: T1, GluA2 (Rattus norvegicus, UniProt P19491); test: Whole-cell patch clamp recordings of homomeric GluA2 AMPA receptor currents and kinetics in transfected HEK293t cells; assay type: cell-based; conditions: for Amplitude (peak whole-cell current in presence of compound): 16 µM compound co-applied with agonist, HEK293t, −60 mV, pH 7.4, 22 °C; for Amplitude (peak whole-cell current in presence of compound) / A/AI (amplitude ratio, glutamate alone / with compound) / t deact (weighted deactivation time constant) / t des (weighted desensitization time constant) / Amplitude, applying glutamate alone after compound: mean ± SD; for Amplitude (peak whole-cell current in presence of compound) / A/AI (amplitude ratio, glutamate alone / with compound) / Amplitude, applying glutamate alone after compound: n = 10; for A/AI (amplitude ratio, glutamate alone / with compound): 16 µM compound; for t deact (weighted deactivation time constant): 10 mM glutamate for 1 ms; for t deact (weighted deactivation time constant) / t des (weighted desensitization time constant): with compound; for t des (weighted desensitization time constant): 10 mM glutamate for 500 ms; for Amplitude, applying glutamate alone after compound: glutamate alone after the compound; for Effect on deactivation kinetics (τdeac), in words / Effect on desensitization kinetics (τdes), in words: versus glutamate alone, one-way ANOVA
T1 construct: expressed in transfected cells; host or cells: HEK293T (HEK293) cells, transient co-transfection with a separate EGFP vector
T1 sequence (P19491 22-883 isoform P19491-2 limits assumed): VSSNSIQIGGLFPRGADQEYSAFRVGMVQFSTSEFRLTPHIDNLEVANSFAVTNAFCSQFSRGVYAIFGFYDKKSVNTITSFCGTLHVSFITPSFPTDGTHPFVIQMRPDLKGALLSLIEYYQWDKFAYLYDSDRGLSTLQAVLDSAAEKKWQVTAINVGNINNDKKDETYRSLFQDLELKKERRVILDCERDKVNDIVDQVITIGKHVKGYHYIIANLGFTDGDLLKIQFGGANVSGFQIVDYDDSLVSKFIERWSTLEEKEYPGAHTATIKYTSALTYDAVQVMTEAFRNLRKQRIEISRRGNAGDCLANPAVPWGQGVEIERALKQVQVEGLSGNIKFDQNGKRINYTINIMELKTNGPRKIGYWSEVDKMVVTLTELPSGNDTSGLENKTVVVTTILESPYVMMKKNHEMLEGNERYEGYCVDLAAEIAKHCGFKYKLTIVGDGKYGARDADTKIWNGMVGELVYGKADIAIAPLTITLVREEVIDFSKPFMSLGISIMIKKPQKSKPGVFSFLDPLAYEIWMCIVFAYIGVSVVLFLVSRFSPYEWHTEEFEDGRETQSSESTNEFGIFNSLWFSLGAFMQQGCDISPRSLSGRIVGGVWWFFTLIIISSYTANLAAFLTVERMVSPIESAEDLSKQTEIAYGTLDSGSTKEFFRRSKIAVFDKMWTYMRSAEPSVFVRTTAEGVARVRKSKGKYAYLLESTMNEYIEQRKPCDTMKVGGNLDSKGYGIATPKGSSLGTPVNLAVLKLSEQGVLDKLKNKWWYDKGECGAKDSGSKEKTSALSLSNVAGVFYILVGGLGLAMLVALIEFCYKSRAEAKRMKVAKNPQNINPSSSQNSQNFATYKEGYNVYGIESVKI
Source text: (§1) The AMPA receptor subunits utilized in this study were of the flip isoform. The flip variant of the GluA2 subunit was originally provided by S. F. Heinemann (Salk Institute, La Jolla, CA, USA) in a pBlueScript plasmid. This plasmid was subsequently sub-cloned into a pRK vector to enable expression in HEK293 cells, which were sourced from Sigma, Germany. Additionally, the unedited version of GluA2 (R607Qjj, flip isoform) and enhanced green fluorescent protein (EGFP), both contained in pRK5 vectors, were generously supplied by P. H. Seeburg (Max Planck Institute for Medical Research, Heidelberg, Germany). Chemical-mediated ways induced transfection. GluA2 homomers were expressed into HEK293 cells by the co-transfection of 1 μg GluA2 plasmid with an equal amount of GFP expression vectors (1:1 ratio) into the cells. In addition, co-transfection was conducted for heteromeric GluA2/3 subunits at a ratio of 1:1.2 for optimum expression. For post-transfection experiments, cells were plated in 10% fetal calf serum and antibiotics in DMEM in Petri plates. These cultures were maintained under carefully controlled conditions—37 °C and 5% CO2 within a humidified incubator. The selection of cells for recordings was based on fluorescence intensity. Highly GFP-positive cells were identified and isolated for further analysis, ensuring precise targeting of transfected populations.
(§2) Whole-cell patch clamp recordings were performed on HEK293t cells 36–48 h after transfection. Experiments were conducted at 22 °C, maintaining a holding potential of −60 mV, using an Integrated Patch Amplifier (IPA) from Sutter Instruments (Novato, CA, USA). Data acquisition was managed with SutterPatch Software v. 1.1.1 (Sutter Instruments), employing a sampling rate of 10 kHz and setting the low-pass filter at 2 kHz. […] The external solution contained 150 mM NaCl, 2.8 mM KCl, 0.5 mM MgCl2, 2 mM CaCl2, and 10 mM HEPES, adjusted to a pH of 7.4 using NaOH. The internal pipette solution was composed of 110 mM CsF, 30 mM CsCl, 4 mM NaCl, 0.5 mM CaCl2, 10 mM trypsin-EDTA solution B (0.25%), 0.05% EDTA, and 10 mM HEPES, with the pH adjusted to 7.2 using CsOH.
(§3) A dual-barrel glass pipette (theta tube) was employed for the rapid delivery of glutamate and other solutions. The theta tube was attached to a high-speed piezoelectric solution exchange system (Automate Scientific, Berkeley, CA, USA). To assess the efficiency of solution exchange, open-tip potentials were measured by applying solutions with different ionic compositions after the patch was expelled from the pipette. The time required for a 10–90% change in the solution was generally less than […].
(§4) Data analysis was performed with Igor Pro8.04 software (Wave Metrics, Inc., Portland, OR, USA). AMPA receptor deactivation and desensitization kinetics were measured by applying 10 mM glutamate for 1 ms and 500 ms, respectively. The currents from the AMPA receptor were fitted to a double-exponential model to quantify deactivation and desensitization time constants measured from the double-exponential fits. The weighted tau (τw) is calculated as: τw = (τf × af) + (τs × as), where τf and τs are the time constants of fast and slow exponential components and af and as represent their relative amplitudes.
(§5) Data are presented as the mean ± standard deviation (SD). The total number of HEK293 cells engaged was n = 10. The experimental groups were compared to the wild type using a one-way analysis of variance (ANOVA). Statistical significance was assessed using p values: p < 0.05 (*) indicated significance, p < 0.01 (**) indicated high significance, and p < 0.001 (***) indicated very high significance. The value “ns” indicates non-significance. Concentration–response relationships were modeled using the Hill equation with the resulting combined plots via GraphPad Prism software (version 6.01, GraphPad Software). The data presented are the means from 3–4 experimental replicates. […]

[2] = biological target: T2, GluA2/3 (UniProt P19491+P42263); test: Whole-cell patch clamp recordings of heteromeric GluA2/3 AMPA receptor currents and kinetics in transfected HEK293t cells; assay type: cell-based; conditions: for Amplitude (peak whole-cell current in presence of compound): 16 µM compound co-applied with agonist, HEK293t, −60 mV, pH 7.4, 22 °C; for Amplitude (peak whole-cell current in presence of compound) / A/AI (amplitude ratio, glutamate alone / with compound) / t deact (weighted deactivation time constant) / t des (weighted desensitization time constant) / Amplitude, applying glutamate alone after compound: mean ± SD; for Amplitude (peak whole-cell current in presence of compound) / A/AI (amplitude ratio, glutamate alone / with compound) / Amplitude, applying glutamate alone after compound: n = 10; for A/AI (amplitude ratio, glutamate alone / with compound): 16 µM compound; for t deact (weighted deactivation time constant): 10 mM glutamate for 1 ms; for t deact (weighted deactivation time constant) / t des (weighted desensitization time constant): with compound; for t des (weighted desensitization time constant): 10 mM glutamate for 500 ms; for Amplitude, applying glutamate alone after compound: glutamate alone after the compound; for Effect on deactivation kinetics (τdeac), in words / Effect on desensitization kinetics (τdes), in words: versus glutamate alone, one-way ANOVA
T2 construct: expressed in transfected cells; host or cells: HEK293T (HEK293) cells, transient co-transfection
T2 sequence (P19491 22-883 isoform P19491-2 limits assumed): as above
T2 sequence (P42263 29-894 isoform P42263-2 limits assumed): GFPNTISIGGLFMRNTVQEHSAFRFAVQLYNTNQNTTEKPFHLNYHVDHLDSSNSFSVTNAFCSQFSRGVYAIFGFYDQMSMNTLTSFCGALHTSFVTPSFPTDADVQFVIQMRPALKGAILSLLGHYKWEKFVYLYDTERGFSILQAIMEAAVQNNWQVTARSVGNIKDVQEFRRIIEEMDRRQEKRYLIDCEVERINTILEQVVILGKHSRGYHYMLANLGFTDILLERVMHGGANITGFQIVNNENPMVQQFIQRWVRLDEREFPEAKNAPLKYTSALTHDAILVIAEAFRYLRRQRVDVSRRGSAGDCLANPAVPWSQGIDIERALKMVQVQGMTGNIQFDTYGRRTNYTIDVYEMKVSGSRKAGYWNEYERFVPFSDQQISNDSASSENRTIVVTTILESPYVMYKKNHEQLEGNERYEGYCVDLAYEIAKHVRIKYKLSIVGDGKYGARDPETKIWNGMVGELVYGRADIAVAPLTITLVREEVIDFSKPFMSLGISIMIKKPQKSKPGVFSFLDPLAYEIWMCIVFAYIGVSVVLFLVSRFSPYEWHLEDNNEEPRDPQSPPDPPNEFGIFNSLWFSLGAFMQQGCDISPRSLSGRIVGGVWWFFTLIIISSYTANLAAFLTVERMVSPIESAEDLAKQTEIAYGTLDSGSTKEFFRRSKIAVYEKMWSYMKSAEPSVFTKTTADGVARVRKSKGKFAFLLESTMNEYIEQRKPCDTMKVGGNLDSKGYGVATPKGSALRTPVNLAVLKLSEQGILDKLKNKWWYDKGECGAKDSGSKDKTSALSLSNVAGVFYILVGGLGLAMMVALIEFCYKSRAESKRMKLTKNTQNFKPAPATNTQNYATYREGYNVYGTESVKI
Source text: as §1, §2, §3, §4, §5

[3] = concentration–response fit, read-out: Log IC50 (converted)
[4] = inhibition of whole-cell peak current, concentration–response, Hill fit, read-out: IC50

SMILES | Amplitude (peak whole-cell current in presence of compound) [1] [pA] | A/AI (amplitude ratio, glutamate alone / with compound) [1] | t deact (weighted deactivation time constant) [1] [ms] | t des (weighted desensitization time constant) [1] [ms] | IC50 [1, 3] [µM] | Amplitude, applying glutamate alone after compound [1] [pA] | IC50 [1, 4] [µM] | Effect on deactivation kinetics (τdeac), in words [1] | Effect on desensitization kinetics (τdes), in words [1] | Amplitude (peak whole-cell current in presence of compound) [2] [pA] | A/AI (amplitude ratio, glutamate alone / with compound) [2] | t deact (weighted deactivation time constant) [2] [ms] | t des (weighted desensitization time constant) [2] [ms] | IC50 [2, 3] [µM] | Amplitude, applying glutamate alone after compound [2] [pA] | IC50 [2, 4] [µM] | Effect on deactivation kinetics (τdeac), in words [2] | Effect on desensitization kinetics (τdes), in words [2]
COc1cc(NC(=O)c2c(-c3c(Cl)cccc3Cl)noc2C)cc(OC)c1 [CIC-3, 3-(2,6-dichlorophenyl)-N-(3,5-dimethoxyphenyl)-5-methylisoxazole-4-carboxamide] | 223±15 | 5.60±0.27 | 6.3 ± 0.3 | 0.9 ± 0.1 | 4.79 | 1216±119 | 4.82 | statistically significant prolongation of τdeac | significantly accelerated desensitization | 101±10 | 5.50±0.26 | 6.2 ± 0.3 | 0.9 ± 0.1 | 4.9 | 542±66 | 4.92 | statistically significant prolongation of τdeac | significantly accelerated desensitization
COc1cc(NC(=O)c2c(-c3c(Cl)cccc3Cl)noc2C)cc(OC)c1OC [CIC-4, 3-(2,6-dichlorophenyl)-5-methyl-N-(3,4,5-trimethoxyphenyl)isoxazole-4-carboxamide] | 250±22 | 5.0±0.23 | 5.6 ± 0.3 | 1.1 ± 0.1 | 5.25 | 1220±157 | 5.26 | statistically significant prolongation of τdeac | accelerated desensitization, although to a lesser degree | 110±16 | 4.97±0.23 | 5.7 ± 0.3 | 1.1 ± 0.1 | 5.37 | 531±89 | 5.4 | statistically significant prolongation of τdeac | accelerated desensitization, although to a lesser degree
COc1ccc(NC(=O)c2c(-c3c(Cl)cccc3Cl)noc2C)c(OC)c1 [CIC-5, 3-(2,6-dichlorophenyl)-N-(2,4-dimethoxyphenyl)-5-methylisoxazole-4-carboxamide] | 228±15 | 5.42±0.07 | 6.1 ± 0.3 | 1.0 ± 0.1 | 5.01 | 1198±99 | 5.03 | statistically significant prolongation of τdeac | accelerated desensitization, although to a lesser degree | 105±7 | 5.37±016 | 6.2 ± 0.3 | 1.0 ± 0.1 | 5.13 | 548±40 | 5.14 | statistically significant prolongation of τdeac | accelerated desensitization, although to a lesser degree
COc1ccc(NC(=O)c2c(-c3c(Cl)cccc3Cl)noc2C)cc1OC [CIC-6, 3-(2,6-dichlorophenyl)-N-(3,4-dimethoxyphenyl)-5-methylisoxazole-4-carboxamide] | 256±19 | 4.84±0.23 | 5.4 ± 0.2 | 1.5 ± 0.1 | 5.75 | 1202±120 | 5.74 | statistically significant prolongation of τdeac | accelerated desensitization, although to a lesser degree | 116±10 | 4.76±0.14 | 5.3 ± 0.3 | 1.6 ± 0.1 | 5.75 | 534±56 | 5.76 | statistically significant prolongation of τdeac | accelerated desensitization, although to a lesser degree
COc1ccccc1Oc1ccc(NC(=O)c2c(-c3c(Cl)cccc3Cl)noc2C)cc1 [CIC-7, 3-(2,6-dichlorophenyl)-N-(4-(2-methoxyphenoxy)phenyl)-5-methylisoxazole-4-carboxamide] | 280±13 | 4.53±0.21 | 5.1 ± 0.2 | 1.7 ± 0.1 | 6.03 | 1231±106 | 6.03 | statistically significant prolongation of τdeac | accelerated desensitization, although to a lesser degree | 120±15 | 4.49±0.21 | 5.2 ± 0.2 | 1.8 ± 0.1 | 6.17 | 524±76 | 6.14 | statistically significant prolongation of τdeac | accelerated desensitization, although to a lesser degree
Cc1onc(-c2c(Cl)cccc2Cl)c1C(=O)Nc1ccccc1 [CIC-8, 3-(2,6-dichlorophenyl)-5-methyl-N-phenylisoxazole-4-carboxamide] | 291±22 | 4.36±0.19 | 4.8 ± 0.2 | 1.9 ± 0.1 | 6.17 | 1235±151 | 6.21 | statistically significant prolongation of τdeac | accelerated desensitization, although to a lesser degree | 123±20 | 4.30±0.20 | 4.9 ± 0.3 | 1.9 ± 0.1 | 6.31 | 513±99 | 6.3 | statistically significant prolongation of τdeac | accelerated desensitization, although to a lesser degree
